pIC50, pKd: −log10 of the molar value. Like-named read-outs stand apart in the source and are kept apart here.
Columns and labels:
[1] = target: T1, p56lck GST-SH2 (lck SH2 domain) (Homo sapiens, UniProt P06239); experiment: Receptor-ligand equilibrium binding constants by surface plasmon resonance (biosensor), lck SH2 domain; details: Table 1, compounds of formula (II)
T1 construct: GST (N)

[2] = test system: Inter-leukin 2 (IL-2) production by activated Human Primary T Lymphocytes; experiment: Primary T cell assay: inhibition of IL-2 production by activated human primary CD4 positive T lymphocytes; format: cell-based; details: Table 5, mean IC50 value, CD4 positive T cells activated with anti-CD3/anti-CD28, IL-2 by ELISA, read-out: IC50 (blocking IL-2 production)
Protocol: Summary of Primary T Cell Assay.
Inhibitors of the lck SH2 domain were assayed for their ability to block Inter-leukin 2 (IL-2) production by activated Human Primary T Lymphocytes. Peripheral blood mononuclear cells were isolated from whole blood by centrifugation in ficoll-Pague partitioning medium. CD4 positive cells were purified using negative selection. […] The compounds, at the appropriate dilutions, were added, and the cells were incubated for 60 minutes at 37° C. The CD4 positive T cells were then activated by the addition of anti-CD3 (60 ng/mL), anti CD28 (500 ng/mL) and goat anti mouse IgG coated beads, and incubated overnight at 37° C. The cells were pelleted, and the supernatents assayed for IL-2 by ELISA.
As SH2 domain containing proteins are intracellular, any therapeutic agent must be able to cross biological membranes. […] These characteristics may be quantified by observing inhibition in IL-2 production in human blood CD4 positive T-lymphocytes after T cell receptor and CD28 cross-linking.

T1 sequence (P06239 127-224 limits assumed): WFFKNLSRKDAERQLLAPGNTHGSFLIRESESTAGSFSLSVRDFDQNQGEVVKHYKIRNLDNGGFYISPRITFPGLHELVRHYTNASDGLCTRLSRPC

Row | pKd [1] | pIC50 ([2]; Homo sapiens, CD4 positive) | pIC50 [2] | SMILES
1 | 5.54 | 4.25 |  | CCOc1ccc(Cn2ccc(C)c(NC(=O)C(Cc3ccc(C(C)(C)C(=O)O)cc3)NC(=O)C(C)(C)c3ccc4ccccc4c3)c2=O)cc1 (stereo not drawn) [Compound 139]
2 | 5.44 | 4.28 |  | COc1ccc(Cn2ccc(C)c(NC(=O)[C@H](Cc3ccc(C(C)(C)C(=O)O)cc3)NC(=O)C(C)(C)c3cccc4ccccc34)c2=O)cc1 [Compound 119]
3 | 5.64 | 4.08 |  | Cc1ccn(CC2CCCCC2)c(=O)c1NC(=O)C(Cc1ccc(C(C)(C)C(=O)O)cc1)NC(=O)Cc1cccc2ccccc12 (stereo not drawn) [Compound 194]
4 | 6.51 | 4.03 |  | COc1ccc(Cn2ccc(C)c(NC(=O)C(Cc3ccc(C(C)(C)C(=O)O)cc3)NC(=O)Cc3ccc(C(C)(C)C)cc3)c2=O)cc1 (stereo not drawn) [Compound 173]
5 | 6.18 | 4.02 |  | COc1ccc(Cn2ccc(C)c(NC(=O)C(Cc3ccc(C(C)(C)C(=O)O)cc3)NC(=O)Cc3ccc(Oc4ccccc4)cc3)c2=O)cc1 (stereo not drawn) [Compound 172]
6 | 5.92 | 4.35 |  | Cc1ccn(Cc2ccc3c(c2)OCO3)c(=O)c1NC(=O)C(Cc1ccc(C(C)(C)C(=O)O)cc1)NC(=O)C(C)(C)c1ccc2ccccc2c1 (stereo not drawn) [Compound 154]
7 | 5.85 | 4.60 |  | COc1ccc(Cn2ccc(C)c(NC(=O)C(Cc3ccc(C(C)(C)C(=O)O)cc3)NC(=O)C(C)(C)c3ccc(-c4ccccc4)cc3)c2=O)cc1 (stereo not drawn) [Compound 159]
8 | 6.33 | 4.09 |  | CCC(CC)(C(=O)O)c1ccc(C[C@H](NC(=O)Cc2ccc3ccccc3c2)C(=O)Nc2c(C)ccn(Cc3ccc(OC)cc3)c2=O)cc1 [Compound 106]
9 | 5.42 | 4.27 |  | COc1ccc(Cn2ccc(C)c(NC(=O)C(Cc3ccc(C(C)(C)C(=O)O)cc3)NC(=O)Cc3ccc4ccccc4c3)c2=O)cc1C (racemic) [Compound 149, 3-[2'-(R,S)-(2""-Naphthylacetyl)amino-3'-[4"-(1'"-carboxy-1"-methyl)ethyl]benzene]propanoylamino-1-(4-methoxy-3-methylbenzyl)-4-methyl-2-pyridone]
10 | 3.72 |  | 3.71 | COc1ccc(Cn2ccc(C)c(NC(=O)C(Cc3ccc(C(C)(C)C(=O)O)cc3)NC(=O)Cc3cccc4ccccc34)c2=O)cc1 (stereo not drawn) [Compound 216]
11 | 5.89 | 4.46 |  | CCOc1ccc(Cn2ccc(C)c(NC(=O)C(Cc3ccc(C(C)(C)C(=O)O)cc3)NC(=O)Cc3ccc4ccccc4c3)c2=O)cc1 (stereo not drawn) [Compound 135]
12 | 5.80 | 3.68 |  | Cc1ccn(Cc2ccc(C(F)(F)F)cn2)c(=O)c1NC(=O)[C@H](Cc1ccc(C(C)(C)C(=O)O)cc1)NC(=O)Cc1ccc2ccccc2c1 [Compound 128]
13 | 5.82 | 4.22 |  | COc1ccc(Cn2ccc(C)c(NC(=O)[C@H](Cc3ccc(C(C)(C)C(=O)O)cc3)NC(=O)C(C)c3ccc(CC(C)C)cc3)c2=O)cc1 (stereo partly drawn) [Compound 112]
14 | 5.55 | 4.16 |  | COc1ccc(Cn2ccc(C)c(NC(=O)C(Cc3ccc(C4(C(=O)O)CCCC4)cc3)NC(=O)Cc3ccc4ccccc4c3)c2=O)cc1 (racemic) [Compound 108]
15 | 5.92 | 3.77 |  | CCCCCn1ccc(C)c(NC(=O)C(Cc2ccc(C(C)(C)C(=O)O)cc2)NC(=O)Cc2ccc3ccccc3c2)c1=O (stereo not drawn) [Compound 192]
16 | 5.66 | 4.06 |  | Cc1ccn(CCc2ccccc2)c(=O)c1NC(=O)C(Cc1ccc(C(C)(C)C(=O)O)cc1)NC(=O)Cc1ccc2ccccc2c1 (stereo not drawn) [Compound 200]
17 | 5.23 | 4.44 |  | Cc1ccn(CC2(c3ccccc3)CC2)c(=O)c1NC(=O)C(Cc1ccc(C(C)(C)C(=O)O)cc1)NC(=O)C(C)(C)c1ccc2ccccc2c1 (stereo not drawn) [Compound 215]
18 | 5.96 | 4.20 |  | Cc1ccn(CC2CCCCC2)c(=O)c1NC(=O)C(Cc1ccc(C(C)(C)C(=O)O)cc1)NC(=O)Cc1ccc2ccccc2c1 (stereo not drawn) [Compound 195]
19 | 6.20 | 4.09 |  | CCOc1ccc(Cn2ccc(C)c(NC(=O)C(Cc3ccc(C(C)(C)C(=O)O)cc3)NC(=O)Cc3cccc4ccccc34)c2=O)cc1 (stereo not drawn) [Compound 140]
20 | 5.74 | 4.05 |  | COc1ccc(Cn2ccc(C)c(NC(=O)[C@H](Cc3ccc(C4(C(=O)O)CC4)cc3)NC(=O)Cc3ccc4ccccc4c3)c2=O)cc1 [Compound 218, 3-[2'-(S)-(2""-Naphthylacetyl)amino-3'-[4"-(1'"-carboxy)cyclopropyl]benzene]propanoylamino-1-(4-methoxybenzyl)-4-methyl-2-pyridone]
21 | 6.85 | 3.95 |  | COc1ccc(Cn2ccc(C)c(NC(=O)[C@H](Cc3ccc(C(C)(C)C(=O)O)cc3)NC(=O)Cc3ccc4ccccc4c3)c2=O)cc1 [Compound 97]
22 | 5.77 | 4.12 |  | COc1ccc(Cn2ccc(C)c(NC(=O)C(Cc3ccc(C(C)(C)C(=O)O)cc3)NC(=O)Cc3ccc(-c4ccccc4)cc3)c2=O)cc1 (stereo not drawn) [Compound 158]
23 | 6.29 | 4.12 |  | CCCCCCn1ccc(C)c(NC(=O)C(Cc2ccc(C(C)(C)C(=O)O)cc2)NC(=O)Cc2ccc3ccccc3c2)c1=O (stereo not drawn) [Compound 137]
24 | 5.92 | 4.16 |  | CCc1cn(Cc2ccc(OC)cc2)c(=O)c(NC(=O)C(Cc2ccc(C(C)(C)C(=O)O)cc2)NC(=O)Cc2ccc3ccccc3c2)c1C (stereo not drawn) [Compound 222]
25 | 6.28 | 3.94 |  | COc1ccc(Cn2ccc(C)c(NC(=O)C(Cc3ccc(C(C)(C)C(=O)O)cc3)NC(=O)Cc3cccc4ccccc34)c2=O)cc1 (stereo not drawn) [Compound 169]
26 | 5.40 | 4.34 |  | Cc1ccn(Cc2ccccc2Oc2ccccc2)c(=O)c1NC(=O)C(Cc1ccc(C(C)(C)C(=O)O)cc1)NC(=O)Cc1ccc2ccccc2c1 (stereo not drawn) [Compound 156]
27 | 5.64 | 4.24 |  | COc1ccc(Cn2ccc(C)c(NC(=O)[C@H](Cc3ccc(C(C)(C)C(=O)O)cc3)NC(=O)[C@@H](C)c3ccc4ccccc4c3)c2=O)cc1 [Compound 46]
